From ChEMBL document CHEMBL1201862, “PubChem BioAssay data set” (2004)
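Method: 48-hour compound exposure of cells in 96-well plates, five concentrations, linear interpolation of endpoints. GI50 = concentration required for 50% inhibition of growth.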 Activity calls are given as the source filed them. Cut-off read from the data, not from the text of the source: active = GI50 up to about 1.1 µM and inactive = higher.

What was measured:
Experiment in all cases: DTP human tumour cell line panel, 48 h
[1] = test system: SK-OV-3
[2] = test system: MDA-MB-435
[3] = test system: PC-3
[4] = test system: MOLT-4
[5] = test system: KM12
[6] = test system: SNB-19
[7] = test system: SK-MEL-2
[8] = test system: SNB-75
[9] = test system: HOP-92
[10] = test system: IGROV-1
[11] = test system: Malme-3M
[12] = test system: HOP-62
[13] = test system: UACC-257
[14] = test system: RXF 393
[15] = test system: COLO 205
[16] = test system: MCF7
[17] = test system: SW-620
[18] = test system: U-251
[19] = test system: SF-295
[20] = test system: SK-MEL-5

Measured: GI50

Cn1c(-c2ccccc2)c2cc3nc4ccccc4nc3cc2c1-c1ccccc1
inactive: [1] 21.6 µM | [2] 5.79 µM | [3] 14.7 µM | [4] 21 µM | [5] 11.6 µM | [6] 20.2 µM | [7] 17.7 µM | [8] 26.5 µM | [9] 25.3 µM | [10] 17.5 µM | [11] 30.1 µM | [12] 10.2 µM | [13] 56.2 µM | [14] 22.3 µM | [15] 2.26 µM | [16] 12.1 µM | [17] 15.8 µM | [18] 19.8 µM | [19] 14.4 µM | [20] 1.67 µM

Nc1nc2c(c(-c3ccc(F)cc3)n1)COC/C2=C\c1ccc(F)cc1
inactive: [1] > 100 µM | [2] 41.2 µM | [3] 43.3 µM | [4] 51.2 µM | [5] 15.7 µM | [6] 24.8 µM | [7] > 100 µM | [8] 20.5 µM | [9] 30.4 µM | [10] 40.6 µM | [11] 12.7 µM | [12] 34.6 µM | [13] 45.6 µM | [14] 52.7 µM | [15] > 100 µM | [16] 28.1 µM | [17] > 100 µM | [18] 15.4 µM | [19] 35.5 µM | [20] 56 µM

CC1(O)C2(c3ccccc3)CCC[N+]1(C)CC2 (stereo not given)
inactive: [1] > 100 µM | [2] > 100 µM | [3] > 100 µM | [4] > 100 µM | [5] > 100 µM | [6] > 100 µM | [7] > 100 µM | [8] > 100 µM | [9] > 100 µM | [10] > 100 µM | [11] > 100 µM | [12] > 100 µM | [13] > 100 µM | [14] > 100 µM | [15] > 100 µM | [16] > 100 µM | [17] > 100 µM | [18] > 100 µM | [19] > 100 µM | [20] > 100 µM
